The subject of this experiment is ALMAN (Allium cepa α-mannosidase). Kind of experiment: p-nitrophenol release, absorption at […] nm. It is filed as biochemical. The settings on record: 20 mM sodium acetate pH 4.0, 40 °C (standard assay).

The Km is the concentration of substrate that gives half-maximal velocity. On to `O=[N+]([O-])c1ccc(O[C@H]2O[C@H](CO)[C@@H](O)[C@H](O)[C@@H]2O)cc1` [pNP-α-Man], for which the Km is 1690 µM.

Source of the values: article PMC11116084 (Journal of Applied Glycoscience, 2024).
